According to patent US5814646A, “Inhibitors of amyloid beta-protein production” (Eli Lilly and Company, priority 1995, dated 1998):

These compounds were tested on Aβ production in 293 751 SWE and CHO 751 SWE cells (transfected with APP-751 Swedish mutation) (assay: Aβ production inhibition activity in cells (Aβ ELISA of conditioned media, normalized for cytotoxicity by MTT)). Details: 5 μg/ml.
Type: cell-based
Description: Two cell lines (human kidney cell line 293 and Chinese hamster ovary cell line CHO) were stably transfected with the gene for APP-751 containing the double mutation Lys651 -Met652 to Asn651 -Leu652 (APP-751 numbering) commonly called the Swedish mutation using the method described in Citron et al., (1992) Nature 360:672-674. The transfected cell lines were designated as 293 751 SWE and CHO 751 SWE, and were plated in Corning 96 well plates at 2.5×10^4 or 1×10^4 cells per well respectively in Dulbecco's minimal essential media plus 10% fetal bovine serum. Following overnight incubation at 37° C. in an incubator equilibrated with 10% carbon dioxide (CO2), the media were removed and replaced with 200 μL per well of media containing a test compound. After a two hour pretreatment period, the media were again removed and replaced with fresh media containing the test compound and the cells were incubated for an additional two hours.
Test compound stocks were prepared in DMSO such that at the final concentration used in the treatment, the concentration of DMSO did no exceed 0.5%. After treatment, plates were centrifuged in a Beckman GPR at 1200 rpm for five minutes at room temperature to pellet cellular debris from the conditioned media. From each well, 100 μL of conditioned media were transferred into an ELISA plate precoated with antibody 266 against βAP-13-28 (Seubert et al., supra.) and stored at 4° C. overnight. An ELISA assay employing labeled antibody 6C6 (against βAP-1-16) was run the next day to measure the amount of Aβ produced.
Cytotoxic effects of the test compounds were measured by a modification of the method of Hansen et al., (1989) J. Immun. Meth. 119:203-210. To the cells remaining in the tissue culture plate, was added 25 μL of a 3, (4,5-dimethylthiazol-2-yl)2,5-diphenyltetrazolium bromide (MTT) stock solution (5 mg/mL) to a final concentration of […]. Cells were incubated at 37° C. for one hour, and cellular activity was stopped by the addition of an equal volume of MTT lysis buffer (20% w/v sodium dodecylsulfate in 50% DMF, pH 4.7). Complete extraction was achieved by overnight shaking at room temperature. The difference in the OD562 nm and the OD650 nm was measured in a Molecular Devices UVmax microplate reader as an indicator of the cellular viability.
The results of the Aβ ELISA were fit to a standard curve and expressed as ng/mL Aβ peptide. In order to normalize for cytotoxicity, these Aβ results were divided by the MTT results and expressed as a percentage of the results from a drug -free control.
The test compounds were assayed for Aβ production inhibition activity in cells at […] using the test. The results presented in Table 1 are the mean and standard deviation of at least six replicate assays. IC50 means the concentration of test compound in micromoles/liter required to inhibit Aβ production by 50%.

Row | SMILES | inhibition at 5 µg/mL
1 | ON(Cc1ccc(-c2ccccc2)cc1)C(=S)NCc1ccccc1 [Compound 77] | 2%
2 | CCCCCCNC(=S)N(O)Cc1ccc(-c2ccccc2)cc1 [Compound 78] | 24%
3 | CC(c1cccc(NC(=O)c2ccc(C(C)(C)C)cc2)c1)N(O)C(=S)NCc1ccccc1 (stereo not drawn) [Compound 99] | 43%
4 | Cc1cccc(CNC(=S)N(O)C(C)c2cccc(NC(=O)c3ccc(C(C)(C)C)cc3)c2)c1 (stereo not drawn) [Compound 100] | 1%

Same assay, conditions: 10 μg/ml, % of drug-free control, normalized to MTT

Row | SMILES | inhibition at 10 µg/mL | Aβ Production Inhibition Activity, % inhibition at 10 μg/ml
5 | CCCc1c(COc2ccc(CN(O)C(=S)NCc3ccccc3)cc2)ccc(C(C)=O)c1O [Compound 67] | 42% | –
6 | CCCc1c(COc2ccc(CN(O)C(=S)Nc3ccc(Cl)c(C(F)(F)F)c3)cc2)ccc(C(=O)c2ccccc2)c1O [Compound 69] | 14% | –
7 | CCCCCCNC(=S)N(O)Cc1cccc(OCc2ccc(C(=O)CC)c(O)c2CCC)c1 [Compound 70] | 37% | –
8 | ON(Cc1ccc(-c2ccccc2)cc1)C(=S)NCc1ccc(Cl)c(Cl)c1 [Compound 76] | 13% | –
9 | Cc1cccc(CNC(=S)N(O)Cc2ccc(-c3ccccc3)cc2)c1 [Compound 79] | 15% | –
10 | CCCCCCNC(=S)N(O)Cc1ccc(-c2ccc(C(C)(C)C)cc2)cc1 [Compound 80] | 11% | –
11 | CC(C)(C)c1ccc(-c2ccc(CN(O)C(=S)NCc3ccccc3)cc2)cc1 [Compound 81] | 20% | –
12 | Cc1cccc(CNC(=S)N(O)Cc2ccc(-c3ccc(C(C)(C)C)cc3)cc2)c1 [Compound 82] | 30% | –
13 | CC(C)(C)c1ccc(S(=O)(=O)c2cccc(CN(O)C(=S)NCc3ccccc3)c2)cc1 [Compound 92] | 25% | –
14 | CCCCCCNC(=S)N(O)Cc1cccc(S(=O)(=O)c2ccc(C(C)(C)C)cc2)c1 [Compound 93] | – | 13%
15 | COc1ccccc1CNC(=S)Nc1ccc(Oc2ccc(C(C)(C)C)cc2)cc1 [Compound 109] | 37% | –
16 | CC(C)(C)c1ccc(Oc2ccc(NC(=S)NCc3cccnc3)cc2)cc1 [Compound 121] | 37% | –
17 | CC(C)(C)OC(=O)N1CCCCC1CNC(=S)Nc1ccc(Oc2ccc(C(C)(C)C)cc2)cc1 (stereo not drawn) [Compound 124] | 31% | –

Same assay, conditions: 2 h pretreatment + 2 h incubation

Row | SMILES | IC50
18 | CCCCCCNC(=S)N(O)Cc1ccc(OCc2ccc(C(C)=O)c(O)c2CCC)cc1 [Compound 68] | 19.7 µM
19 | COc1c(C(C)(C)C)cc(COc2cccc(CN(O)C(=S)NCc3ccccc3)c2)cc1C(C)(C)C [Compound 72] | 8.1 µM
20 | COc1c(C(C)(C)C)cc(COc2ccc(CN(O)C(=S)NCc3ccccc3)cc2)cc1C(C)(C)C [Compound 73] | 5.9 µM
21 | CC(c1cccc(OCc2ccc(C(C)(C)C)cc2)c1)N(O)C(=S)NCc1ccccc1 (stereo not drawn) [Compound 75] | 8.9 µM
22 | CC(C)(C)c1ccc(-c2ccc(CN(O)C(=S)Nc3ccc(Cl)c(C(F)(F)F)c3)cc2)cc1 [Compound 83] | 12.4 µM
23 | CC(C)(C)c1ccc(C(=O)Nc2cccc(CN(O)C(=S)NCc3ccccc3)c2)cc1 [Compound 84] | 15 µM
24 | CCCCCCNC(=S)N(O)Cc1cccc(NC(=O)c2ccc(C(C)(C)C)cc2)c1 [Compound 85] | 18.6 µM
25 | CC(C)(C)c1ccc(Sc2cccc(CN(O)C(=S)NCc3ccccc3)c2)cc1 [Compound 86] | 5.9 µM
26 | CCCCCCNC(=S)N(O)Cc1cccc(Sc2ccc(C(C)(C)C)cc2)c1 [Compound 87] | 9.9 µM
27 | CC(C)(C)c1ccc(Sc2ccc(CN(O)C(=S)NCc3ccccc3)cc2)cc1 [Compound 88] | 7.5 µM
28 | CCCCCCNC(=S)N(O)Cc1ccc(Sc2ccc(C(C)(C)C)cc2)cc1 [Compound 89] | 5.3 µM
29 | CCCCCCNC(=S)N(O)Cc1cccc(S(=O)(=O)c2ccc(C(C)(C)C)cc2)c1 [Compound 90] | 22 µM
30 | CC(C)(C)c1ccc([S+]([O-])c2cccc(CN(O)C(=S)NCc3ccccc3)c2)cc1 (stereo not drawn) [Compound 91] | 17.1 µM
31 | CC(C)(C)c1ccc(SCc2ccc(CN(O)C(=S)NCc3ccccc3)cc2)cc1 [Compound 94] | 13.1 µM
32 | CC(C)(C)c1ccc(SCc2ccc(CN(O)C(=S)Nc3ccc(Cl)c(C(F)(F)F)c3)cc2)cc1 [Compound 95] | 4.6 µM
33 | CCCCCCNC(=S)N(O)Cc1ccc(COc2ccc(C(C)(C)CC)cc2)cc1 [Compound 96] | 24.8 µM
34 | CCC(C)(C)c1ccc(OCc2ccc(CN(O)C(=S)NCc3ccccc3)cc2)cc1 [Compound 97] | 10 µM
35 | CCCCCCNC(=S)N(O)C(C)c1cccc(NC(=O)c2ccc(C(C)(C)C)cc2)c1 (stereo not drawn) [Compound 98] | 13 µM
36 | CCCc1cc(C(C)(C)C)ccc1Oc1cccc(CN(O)C(=S)NCc2ccccc2)c1 [Compound 101] | 4.5 µM
37 | CCCCCCNC(=S)N(O)Cc1cccc(Oc2ccc(C(C)(C)C)cc2CCC)c1 [Compound 102] | 6.1 µM
38 | CCCc1cc(C(C)(C)C)ccc1Oc1cccc(CN(O)C(=O)Nc2ccc(Cl)c(C(F)(F)F)c2)c1 [Compound 103] | 20 µM
39 | CC(C)(C)c1ccc(Oc2ccc(NC(=S)NCc3ccccc3Cl)cc2)cc1 [Compound 104] | 13.4 µM
40 | CC(C)(C)c1ccc(Oc2ccc(NC(=S)NCc3cccc(Cl)c3)cc2)cc1 [Compound 105] | 9.4 µM
41 | CC(C)(C)c1ccc(Oc2ccc(NC(=S)NCc3ccc(Cl)cc3)cc2)cc1 [Compound 106] | 9.2 µM
42 | CC(C)(C)c1ccc(Oc2ccc(NC(=S)NCc3cccc(Br)c3)cc2)cc1 [Compound 107] | 7.2 µM

Row | SMILES | IC50
43 | CC(C)(C)c1ccc(Oc2ccc(NC(=S)NCc3ccc(Br)cc3)cc2)cc1 [Compound 108] | 8.9 µM
44 | COc1cccc(CNC(=S)Nc2ccc(Oc3ccc(C(C)(C)C)cc3)cc2)c1 [Compound 110] | 21.2 µM
45 | COc1ccc(CNC(=S)Nc2ccc(Oc3ccc(C(C)(C)C)cc3)cc2)cc1 [Compound 111] | 8.3 µM
46 | CC(C)(C)c1ccc(Oc2ccc(NC(=S)NCc3cccc(F)c3)cc2)cc1 [Compound 112] | 7.6 µM
47 | CC(C)(C)c1ccc(Oc2ccc(NC(=S)NCc3ccc(F)cc3)cc2)cc1 [Compound 113] | 5.6 µM
48 | CC(C)(C)c1ccc(Oc2ccc(NC(=S)Nc3ccccc3)cc2)cc1 [Compound 114] | 18.2 µM
49 | CC(C)(C)c1ccc(Oc2ccc(NC(=S)NCc3ccccc3)cc2)cc1 [Compound 115] | 16.4 µM
50 | CC(C)(C)c1ccc(Oc2ccc(NC(=S)NCCc3ccccc3)cc2)cc1 [Compound 116] | 19.8 µM
51 | CC(C)(C)c1ccc(Oc2ccc(NC(=S)NCCCc3ccccc3)cc2)cc1 [Compound 117] | 17 µM
52 | CC(C)(C)c1ccc(Oc2ccc(NC(=S)NCCCCc3ccccc3)cc2)cc1 [Compound 118] | 16.4 µM
53 | CC(C)(C)c1ccc(Oc2ccc(NC(=S)NC3CCCCC3)cc2)cc1 [Compound 119] | 15.2 µM
54 | CC(C)(C)c1ccc(Oc2ccc(NC(=S)NCc3ccccn3)cc2)cc1 [Compound 120] | 15.6 µM
55 | CC(C)(C)c1ccc(Oc2ccc(NC(=S)NCc3ccncc3)cc2)cc1 [Compound 122] | 23.5 µM
56 | CC(C)(C)c1ccc(Oc2ccc(NC(=S)NCCc3ccccn3)cc2)cc1 [Compound 123] | 12.3 µM
57 | CC(C)(C)OC(=O)N1CCCC(CNC(=S)Nc2ccc(Oc3ccc(C(C)(C)C)cc3)cc2)C1 (stereo not drawn) [Compound 125] | 9.3 µM
58 | CC(C)(C)c1ccc(Oc2ccc(NC(=S)NCC3CCCCN3)cc2)cc1 (stereo not drawn) [Compound 126] | 7 µM
59 | CC(C)(C)c1ccc(Oc2ccc(NC(=S)NCC3CCCNC3)cc2)cc1 (stereo not drawn) [Compound 127] | 11.7 µM
60 | CC(C)(C)c1ccc(Oc2ccc(NC(=S)NCc3ccc(F)cc3F)cc2)cc1 [Compound 128] | 7.3 µM
61 | CC(C)(C)c1ccc(Oc2ccc(NC(=S)NCc3ccc(F)c(F)c3)cc2)cc1 [Compound 129] | 4.5 µM
62 | CC(C)(C)c1ccc(Oc2ccc(NC(=S)NCc3ccc(F)cc3Cl)cc2)cc1 [Compound 130] | 7.2 µM
63 | CC(C)(C)c1ccc(Oc2ccc(NC(=S)NCc3ccc(F)c(Cl)c3)cc2)cc1 [Compound 131] | 5 µM
64 | CC(C)(C)c1ccc(Oc2ccc(NC(=S)NCc3ccc(F)cc3C(F)(F)F)cc2)cc1 [Compound 132] | 8 µM
65 | CC(C)(C)c1ccc(Oc2ccc(NC(=S)NCc3ccc(Cl)c(Cl)c3)cc2)cc1 [Compound 133] | 6.5 µM
66 | CC(C)(C)c1ccc(Oc2ccc(NC(=S)NCc3nnc(C(F)(F)F)s3)cc2)cc1 [Compound 134] | 10.2 µM
